Patent US20120129842A1, “BISTHIAZOLE INHIBITORS OF PRO-MATRIX METALLOPROTEINASE ACTIVATION” (priority 2010, published 2012)

Experiments:
proMMP9 = target: T1, proMMP9 (Rattus norvegicus, UniProt P50282); test: Activation of proMMP9 in rat synoviocyte cultures (Western blot); assay type: cell-based; details: 80 kD band, pAb-1246
T1 construct: endogenous in cells; host or cells: primary synoviocytes from arthritic female Lewis rats, TNFα-stimulated in collagen gels
Source text: A primary synoviocytes line was derived from the periarticular tissue of arthritic rats. Arthritis was induced in female Lewis rats following an i.p. administration of streptococcal cell wall peptidoglycan polysaccharides (J Exp Med 1977; 146:1585-1602). Rats with established arthritis were sacrificed, and hind-limbs were severed, immersed briefly in 70% ethanol, and placed in a sterile hood. The skin was removed and the inflamed tissue surrounding the tibia-tarsal joint was harvested using a scalpel. Tissue from six rats was pooled, minced to approximately 8 mm^3 pieces, and cultured in Dulbecco's Modified Eagle's Medium (DMEM) containing 15% fetal calf serum (FCS). In the following weeks, cells migrated out of the tissue piece, proliferated, and formed a monolayer of adherent cells. The synoviocytes were lifted from culture plates with 0.05% trypsin and passaged weekly at 1:4 ratios in DMEM containing 10% FCS. Synoviocytes were used at passage 9 to investigate the ability of Example 64 to inhibit the maturation of MMP9 to active form.
Rat synoviocytes spontaneously expressed and activated MMP9 when cultured in collagen gels and stimulated with tumor necrosis factor-alpha (TNFα) (FIG. 1 and Table 3). Eight volumes of an ice-cold solution of 3.8 mg/mL rat tail collagen (Sigma Cat #C3867-1VL) were mixed with 1 volume of 1 M sodium bicarbonate and 1 volume of 10× Roswell Park Memorial Institute medium. The pH of the mixture was adjusted to pH 7 with 1 N sodium hydroxide and equal volumes of the pH-adjusted collagen solution were mixed with DMEM containing 0.8 million synoviocytes per mL. One half mL volumes were dispensed into Costar 24-well culture dishes and placed for one hr at 37° C. and 5% CO2, during which time the collagen solution formed a gel. Individual gels were dislodged into wells of 12-well Costar plates containing 1 mL/well of DMEM adjusted to contain 0.05% BSA and 100 ng/mL mouse TNFα (R&D Systems Cat #410-MT-010). […] After overnight culture at 37° C. and 5% CO2, wells were adjusted to contain an additional 0.5 mL of DMEM containing 0.05% BSA and Example 64 at 4× the final desired concentration (final culture volumes were 2 mL). The plates were cultured an additional 48 hrs, at which time 1 mL of conditioned media were harvested into fresh eppendorf tubes containing 40 μL/mL of a 50% slurry of gelatin-conjugated sepharose (GE Healthcare Cat #17-0956-01). Samples were rotated for 2 hrs at 4° C. before centrifugation 1 min×200 g. Supernatants were discarded. The gelatin-sepharose pellets were washed once with 1 mL of ice cold DMEM, resuspended in 50 μL of 2× reducing Leamli buffer and heated 5 min at 95° C. […] Chemiluminesence signal was analyzed using a ChemiDoc imaging system (BioRad Laboratories) and Quantity One® image software. […]

MMP9 = target: T2, MMP9 (Rattus norvegicus, UniProt P50282); test: Pro and active MMP9 in ankles of rats with SCW-induced arthritis by Western blot; assay type: in vivo; details: Day 26, four hours after AM dose, mAb-L51/82, FIG. 3A
T2 construct: Pro and active MMP9 were abundantly present in ankles of SCW-induced vehicle-treated rats; from tissue; host or cells: ankle (tibia-tarsus joint) homogenates of female Lewis rats
Description: Hind-limbs were skinned, severed just above the tibia-tarsus joint and below the metatarsals, and the tibia-tarsus joints (ankles) were weighed, snap frozen and pulverized on dry ice using a hammer and anvil. The pulverized tissue was suspended in 3 volumes (w:v) of ice-cold homogenization buffer containing 50 mM Tris pH 7.5, 150 mM NaCl, 5 mM EDTA, 1% Triton X100, 0.05% Brij 30, 10% dimethylsulfoxide and Complete EDTA-free Protease Inhibitor Cocktail (Roche Diagnostics). The suspended tissue was homogenized sequentially with a Kinematica AG Polytron and a Dounce homogenizer. Homogenates were centrifuged at 16,000×g for 10 min at 4° C. and the soluble fractions were saved. Dimethylsulfoxide was removed from a portion of each soluble fraction using PD MiniTrap™ G-25 desalting columns (GE Healthcare). Homogenates (0.25 mL), free of DMSO, were diluted with an equal volume of binding buffer (i.e., homogenization buffer without dimethylsufoxide) and adjusted to contain 50 μL of a 50% slurry of gelatin-conjugated sepharose. Following 2 hours of rotation at 4° C. the beads were washed twice in binding buffer and eluted in 100 μL 2×-reducing Laemmli buffer with heating to 95° C. for 5 minutes. […]

[1] = target: proMMP13(1-268) (SEQ ID NO:7) (Homo sapiens, UniProt P45452); test: ProMMP13/Plasmin P126 Activation Assay; assay type: biochemical; parameters: 6xHis (C); made in house; host or cells: HEK293 (transient, secreted); details: 8 nM proMMP13, 16 nM plasmin, 40 min 37° C.
Description: On the day of assay, proMMP13(1-268) (SEQ ID NO:7) purified from HEK293 cells and plasmin were diluted to 160 nM and 320 nM, respectively, in assay buffer. The reaction volume was 50 μL. […] The plate was sealed and incubated for 40 min at 37° C. […] Plasmin was not reactive towards P-126 substrate under these conditions.

T1 sequence (P50282 20-708 limits assumed): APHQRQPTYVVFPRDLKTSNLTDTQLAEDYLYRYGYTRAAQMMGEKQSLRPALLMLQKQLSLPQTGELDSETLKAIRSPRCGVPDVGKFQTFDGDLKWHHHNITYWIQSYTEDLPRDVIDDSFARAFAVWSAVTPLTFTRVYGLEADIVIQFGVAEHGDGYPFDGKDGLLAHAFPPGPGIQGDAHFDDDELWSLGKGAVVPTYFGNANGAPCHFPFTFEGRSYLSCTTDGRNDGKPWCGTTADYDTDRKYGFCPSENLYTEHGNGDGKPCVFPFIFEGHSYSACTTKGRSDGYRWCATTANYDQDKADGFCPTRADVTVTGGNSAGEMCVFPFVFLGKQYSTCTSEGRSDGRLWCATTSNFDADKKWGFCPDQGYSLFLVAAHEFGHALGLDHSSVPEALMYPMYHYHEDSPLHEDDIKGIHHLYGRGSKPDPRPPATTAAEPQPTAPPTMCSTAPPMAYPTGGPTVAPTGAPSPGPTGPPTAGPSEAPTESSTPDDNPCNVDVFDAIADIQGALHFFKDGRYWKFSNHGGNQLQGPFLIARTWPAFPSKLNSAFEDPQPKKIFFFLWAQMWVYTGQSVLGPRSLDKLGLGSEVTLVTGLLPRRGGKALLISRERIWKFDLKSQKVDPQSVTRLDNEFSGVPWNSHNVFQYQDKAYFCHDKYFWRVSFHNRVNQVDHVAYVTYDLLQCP
T2 sequence (P50282 108-708): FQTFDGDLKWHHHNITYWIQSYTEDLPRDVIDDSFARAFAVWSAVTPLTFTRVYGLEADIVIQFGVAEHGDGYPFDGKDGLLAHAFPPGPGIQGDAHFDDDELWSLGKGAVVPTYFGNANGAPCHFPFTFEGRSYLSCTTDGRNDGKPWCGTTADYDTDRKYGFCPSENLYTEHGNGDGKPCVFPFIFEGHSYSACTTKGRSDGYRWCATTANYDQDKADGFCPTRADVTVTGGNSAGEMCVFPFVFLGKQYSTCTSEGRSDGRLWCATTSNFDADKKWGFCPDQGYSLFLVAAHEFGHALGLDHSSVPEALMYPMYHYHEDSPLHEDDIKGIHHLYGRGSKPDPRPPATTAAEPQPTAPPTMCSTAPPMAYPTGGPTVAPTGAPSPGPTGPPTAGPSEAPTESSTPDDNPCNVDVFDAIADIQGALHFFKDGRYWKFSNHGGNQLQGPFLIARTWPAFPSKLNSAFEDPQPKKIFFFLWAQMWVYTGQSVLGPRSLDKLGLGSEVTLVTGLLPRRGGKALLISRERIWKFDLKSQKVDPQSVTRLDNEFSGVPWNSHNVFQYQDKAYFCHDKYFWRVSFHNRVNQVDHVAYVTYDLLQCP

Cc1nc(C)c(-c2csc(Nc3cc(S(N)(=O)=O)ccc3OC(C)C)n2)s1 [Example 64, 3-(2′,4′-Dimethyl-[4,5′]bithiazolyl-2-ylamino)-4-isopropoxy-benzenesulfonamide.HBr]
inhibition at 0.37 µM (proMMP9; 0.37 μM): 12% | inhibition at 1.1 µM (proMMP9; 1.1 μM): 46% | inhibition at 3.3 µM (proMMP9; 3.3 μM): 86% | inhibition at 10 µM (proMMP9; 10 μM): 97% | abundance of proMMP9 in ankles (MMP9): did not reduce the abundance of proMMP9 | IC50 [1]: 3.3 µM
